Assay results: patent US11425909B2, “Use of tetrazolinones for combating resistant phytopathogenic fungi on fruits” (priority 2016, dated 2022)

Tested on: Uncinula necator (UNCINE), Qol-sensitive isolate
Assay: Activity against grape powdery mildew, protective glasshouse test, Qol-sensitive isolate
Assay type: in vivo
Settings: % infected leaf area on grape plants, inoculated 2 days after treatment, assessed 19 days after inoculation
Method: Activity against grape powdery mildew caused by Uncinula necator (UNCINE)
The active compounds were formulated separately. Both compounds were applied on plants at the same concentrations of 100, 25 and 5 ppm. The spray broths were prepared as aqueous solutions based on a 6% EC of compound I according to the present invention and a 5% Aceton/water solution of compound I-213 from prior art (WO2013/092224).
The spray solutions were applied until runoff using an experimental glasshouse spray machine at a water volume equivalent to 1.000 L/ha. Treated plants were placed (together with untreated plants as a reference for infection success) in a glasshouse chamber at approx. 18° C. and 50% rH for two days. Two days after treatment, the plants were split into two groups. They were artificially inoculated using an aqueous conidia suspension of 0.1 to 0.5 E05 conidia/ml. One part was inoculated using a Qol-sensitive isolate, the other part using a Qol-resistant isolate carrying the target mutation G143A. After the artificial inoculation, the plants were placed in a glasshouse chamber at 21° C. and 55% rH for 19 days. The assessment of the infection was done 19 days after the inoculation and reported as % infected leaf area on two leaves which were fully covered by the spray application.

Q: `Cc1cccc(-n2nnn(C)c2=O)c1COc1ccn(-c2ccc(Cl)cc2)n1` [compound I, 1-[2-[[1-(4-chlorophenyl)pyrazol-3-yl]oxymethyl]-3-methyl-phenyl]-4-methyl-tetrazol-5-one] was tested. Which “Infection (%) Sens. Uncinula necator” value (5 ppm spray) did it give?
A: 0.3%

Q: And the “Infection (%) Sens. Uncinula necator” value (25 ppm spray)?
A: 0.4%

Q: And the “Infection (%) Sens. Uncinula necator” value (100 ppm spray)?
A: 0.0%
